Where “and” joins values, the source holds several entries; their conditions need not be identical. Equal values may be shown once.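 Exposure lasted 48 hours, with cells grown in 96-well plates and compounds tested at five concentrations. Here, GI50 denotes the concentration required for 50% inhibition of growth. The concentration for full growth arrest is given as TGI.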
Key:
Assay in all cases: inhibition of tumour cell growth, NCI panel, 48 h
OVCAR-3 ovarian = test system: OVCAR-3 ovarian
NCI-H226 lung = test system: NCI-H226 lung
SK-MEL-5 melanoma = test system: SK-MEL-5 melanoma
TK-10 renal = test system: TK-10 renal
SF-539 CNS = test system: SF-539 CNS
HOP-92 NSCLC = test system: HOP-92 NSCLC
NCI-H23 lung = test system: NCI-H23 lung
MOLT-4 leukemia = test system: MOLT-4 leukemia
SNB-75 CNS = test system: SNB-75 CNS
SNB-19 CNS = test system: SNB-19 CNS

Compound	TGI (OVCAR-3 ovarian)	TGI (NCI-H226 lung)	TGI (SK-MEL-5 melanoma)	TGI (TK-10 renal)	TGI (SF-539 CNS)	TGI (HOP-92 NSCLC)	TGI (NCI-H23 lung)	TGI (MOLT-4 leukemia)	TGI (SNB-75 CNS)	TGI (SNB-19 CNS)	GI50 (TK-10 renal)	GI50 (SF-539 CNS)	GI50 (OVCAR-3 ovarian)	GI50 (NCI-H226 lung)	GI50 (SK-MEL-5 melanoma)	GI50 (HOP-92 NSCLC)	GI50 (NCI-H23 lung)	GI50 (MOLT-4 leukemia)	GI50 (SNB-75 CNS)	GI50 (SNB-19 CNS)
C/C(=N\N=C(N)N)C(CN(CC(C)C)CC(C)C)C(=O)Nc1ccc(C)cc1C (configuration not stated)	> 100 µM	> 100 µM	> 100 µM	> 100 µM	> 100 µM	> 100 µM	> 100 µM	> 100 µM	> 100 µM	> 100 µM										
CCNc1nnc(CSc2nc(-c3ccccc3)c(-c3ccccc3)[nH]2)s1	37.1 µM	35 µM	24.1 µM	56.5 µM	33.2 µM	41.9 µM	65.3 µM	56.7 µM	82.6 µM	34 µM										
COc1cc2oc(=O)cc(C)c2cc1[N+](=O)[O-]	64.1 µM	26.9 µM	> 65.1 µM	83.6 µM	57.7 µM	57.1 µM	51.5 µM	60.9 µM	> 100 µM	> 100 µM										
O=C(Cc1nc2ccccc2s1)C(=O)Nc1ccc(Cl)cc1	> 100 µM	> 100 µM	> 100 µM	> 100 µM	> 100 µM	> 100 µM	> 100 µM	> 100 µM	> 100 µM	> 100 µM										
CN(C)CCCCN1CCc2c(n(C)c3ccccc23)C1=O	> 100 µM	> 80.5 µM	42.8 µM and 31.9 µM	> 100 µM	68.9 µM and 44 µM	81.2 µM and > 90.7 µM	> 100 µM	> 87.6 µM	71.3 µM and 60.8 µM	> 100 µM	> 100 µM and 38.8 µM	50.5 µM and 21.7 µM								
O=C1C2C(C(=O)N1O)N(Cc1ccccc1)C(=O)N2Cc1ccccc1 (configuration not stated)	> 100 µM	> 100 µM	> 100 µM	> 100 µM	> 100 µM	> 100 µM	> 100 µM	> 100 µM	> 100 µM	> 100 µM										
Cn1c(=O)oc2cc(C(=O)CSC(=S)N3CCCCCC3)ccc21	> 100 µM	> 100 µM	> 100 µM	> 100 µM	> 100 µM	> 100 µM	> 100 µM	> 100 µM	> 100 µM	> 100 µM										
c1ccc(N=C2c3ccccc3CN2c2ccccc2)cc1	> 100 µM	> 100 µM	> 100 µM	> 100 µM	> 100 µM	> 100 µM	> 100 µM	> 100 µM	> 100 µM	> 100 µM										
Cc1ccc(Nc2nc(NCCO)c3ccccc3n2)cc1C	23 µM	22.7 µM	10.5 µM	23.3 µM	19.7 µM	8.03 µM	22.5 µM	11 µM	20.9 µM	24.8 µM	11.1 µM	5.87 µM	11 µM	10.8 µM	2.78 µM	1.97 µM	9.74 µM	2.86 µM	8.14 µM	11.5 µM
COc1cccc(N2C(=O)c3c(c4[nH]c5ccccc5c4c4ccc(C(C)(C)C)cc34)C2=O)c1	> 100 µM	> 100 µM	> 100 µM	> 100 µM	> 100 µM	> 100 µM	> 100 µM	> 100 µM	> 100 µM	> 100 µM										

— PubChem BioAssay (NCI)
